Tested on: P12-Ichikawa
Test: cell viability relative to DMSO control; higher = less cytotoxic
Settings: 48 h
Method in brief: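 Viability values are per-plate percentages of DMSO wells, with background from cell-free wells. Library compounds in DMSO were pin-dosed, in an 11-point threefold series from 47 μM to 0.79 nM, onto NOMO1 or SEM (500 cells/well) or P12-Ichikawa (1000 cells/well) leukemia cells in 1536-well plates (5 μl). Those cells had been adapted for at least four passages in each medium, and CellTiter-Glo One luminescence was read after 48 h at 37°C.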

[1] = HPLM + 10% dialyzed FBS, 0.000781 µM
[2] = HPLM + 10% dialyzed FBS, 0.00234 µM
[3] = HPLM + 10% dialyzed FBS, 0.00702 µM
[4] = HPLM + 10% dialyzed FBS, 0.0211 µM
[5] = HPLM + 10% dialyzed FBS, 0.0632 µM
[6] = HPLM + 10% dialyzed FBS, 0.19 µM
[7] = HPLM + 10% dialyzed FBS, 0.569 µM
[8] = HPLM + 10% dialyzed FBS, 1.71 µM
[9] = HPLM + 10% dialyzed FBS, 5.12 µM
[10] = HPLM + 10% dialyzed FBS, 15.4 µM
[11] = HPLM + 10% dialyzed FBS, 46.1 µM
[12] = RPMI 5 mM glucose + 10% FBS, 0.000781 µM
[13] = RPMI 5 mM glucose + 10% FBS, 0.00234 µM
[14] = RPMI 5 mM glucose + 10% FBS, 0.00702 µM
[15] = RPMI 5 mM glucose + 10% FBS, 0.0211 µM
[16] = RPMI 5 mM glucose + 10% FBS, 0.0632 µM
[17] = RPMI 5 mM glucose + 10% FBS, 0.19 µM
[18] = RPMI 5 mM glucose + 10% FBS, 0.569 µM
[19] = RPMI 5 mM glucose + 10% FBS, 1.71 µM
[20] = RPMI 5 mM glucose + 10% FBS, 5.12 µM
[21] = RPMI 5 mM glucose + 10% FBS, 15.4 µM
[22] = RPMI 5 mM glucose + 10% FBS, 46.1 µM
[23] = RPMI 5 mM glucose + 10% dialyzed FBS, 0.000781 µM
[24] = RPMI 5 mM glucose + 10% dialyzed FBS, 0.00234 µM
[25] = RPMI 5 mM glucose + 10% dialyzed FBS, 0.00702 µM
[26] = RPMI 5 mM glucose + 10% dialyzed FBS, 0.0211 µM
[27] = RPMI 5 mM glucose + 10% dialyzed FBS, 0.0632 µM
[28] = RPMI 5 mM glucose + 10% dialyzed FBS, 0.19 µM
[29] = RPMI 5 mM glucose + 10% dialyzed FBS, 0.569 µM
[30] = RPMI 5 mM glucose + 10% dialyzed FBS, 1.71 µM
[31] = RPMI 5 mM glucose + 10% dialyzed FBS, 5.12 µM
[32] = RPMI 5 mM glucose + 10% dialyzed FBS, 15.4 µM
[33] = RPMI 5 mM glucose + 10% dialyzed FBS, 46.1 µM

Structure (SMILES) | cell viability [1] [%] | cell viability [2] [%] | cell viability [3] [%] | cell viability [4] [%] | cell viability [5] [%] | cell viability [6] [%] | cell viability [7] [%] | cell viability [8] [%] | cell viability [9] [%] | cell viability [10] [%] | cell viability [11] [%] | cell viability [12] [%] | cell viability [13] [%] | cell viability [14] [%] | cell viability [15] [%] | cell viability [16] [%] | cell viability [17] [%] | cell viability [18] [%] | cell viability [19] [%] | cell viability [20] [%] | cell viability [21] [%] | cell viability [22] [%] | cell viability [23] [%] | cell viability [24] [%] | cell viability [25] [%] | cell viability [26] [%] | cell viability [27] [%] | cell viability [28] [%] | cell viability [29] [%] | cell viability [30] [%] | cell viability [31] [%] | cell viability [32] [%] | cell viability [33] [%]
Cc1ncc([N+](=O)[O-])n1CC(C)O (stereo not drawn) | 105 | 116 | 111 | 110 | 105 | 117 | 114 | 111 | 116 | 125 | 103 | 94.3 | 109 | 101 | 104 | 90.4 | 113 | 105 | 115 | 104 | 106 | 102 | 102 | 112 | 106 | 104 | 95.2 | 112 | 117 | 113 | 111 | 106 | 106
NC/1=N/C(=O)N(/C=N1)[C@@H]2O[C@H](CO)[C@@H](O)[C@H]2O | 108 | 104 | 102 | 107 | 85.2 | 114 | 104 | 109 | 77 | 55.1 | 22.6 | 107 | 102 | 102 | 98.7 | 88.1 | 113 | 104 | 107 | 91.1 | 59 | 43.2 | 97.1 | 107 | 114 | 116 | 94.7 | 103 | 105 | 104 | 89.6 | 56 | 26.8
C[C@@]1(C(=O)Nc2ccc(F)nc2)CCCN1c1nc(Nc2cc(C3CC3)[nH]n2)c2cccn2n1 | 103 | 109 | 111 | 112 | 114 | 112 | 117 | 114 | 11.6 | 15.1 | 18.6 | 119 | 116 | 130 | 113 | 124 | 120 | 124 | 116 | 21.9 | 23.2 | 27.5 | 107 | 122 | 135 | 121 | 129 | 126 | 131 | 121 | 32.2 | 41 | 43
O.O.CCN1CCN(C(=O)N[C@H](C(=O)N[C@H]2[C@@H]3SC\C(=C(/N3C2=O)C(O)=O)CSC4=NN=N[N]4C)C5=CC=C(O)C=C5)C(=O)C1=O | 92.1 | 102 | 103 | 11.8 | 105 | 103 | 112 | 95.9 | 106 | 108 | 108 | 86.8 | 99.4 | 90.8 | 12.4 | 103 | 100 | 112 | 96.9 | 98.7 | 99.6 | 105 | 84.8 | 88 | 98.1 | 22.6 | 102 | 101 | 93.3 | 97.4 | 97.7 | 102 | 99.5
CC(C)[C@H](N)C(=O)OCCOC[N]1C=NC2=C1\N=C(N)/NC2=O | 124 | 124 | 121 | 125 | 128 | 126 | 131 | 131 | 123 | 123 | 119 | 123 | 135 | 122 | 121 | 128 | 150 | 146 | 152 | 140 | 132 | 146 |  |  |  |  |  |  |  |  |  |  | 
COC1=CC=C2/C3=N/CCN3\C(=N/C2=C1OC)NC(=O)C4=CC=CN=C4 | 113 | 124 | 110 | 117 | 129 | 118 | 113 | 123 | 108 | 92.6 | 89.7 | 108 | 110 | 115 | 108 | 114 | 115 | 104 | 102 | 78.8 | 73.4 | 58 | 111 | 120 | 115 | 119 | 115 | 117 | 111 | 105 | 97.3 | 86.1 | 65.9
OC(CN1CCN(c2cccc(Cl)c2)CC1)C(c1ccccc1)c1ccccc1 (stereo not drawn) | 109 | 114 | 119 | 111 | 120 | 23.4 | 17.3 | 4.64 | 4.77 | 4.92 | 5.05 | 112 | 117 | 114 | 115 | 123 | 126 | 114 | 7.71 | 6.13 | 5.76 | 5.28 | 102 | 112 | 111 | 112 | 118 | 105 | 84.9 | 4.96 | 5.14 | 4.91 | 4.74
COc1ncc(-c2ccc3c(Nc4cc(Oc5cc(F)cc(F)c5)cc(C(=O)O)c4)c([S+](=O)([O-])NC4CC4)cnc3c2)c(OC)n1 | 94.1 | 95.9 | 92.3 | 91.9 | 91.5 | 94.2 | 93.3 | 91.7 | 87.9 | 78.6 | 82.3 | 84 | 87.8 | 88.1 | 93.1 | 97.9 | 84.2 | 82.2 | 83.1 | 79.6 | 75.3 | 76.5 | 91.1 | 43 | 87.7 | 89.4 | 92.7 | 91 | 91.3 | 88.4 | 84.6 | 82.8 | 81.8

Source: the supplement of paper PMC11451515
